Results from patent US10766942B2, “Fragments of syndecan-2 having anti-angiogenic activity” (Queen Mary University of London, priority 2014, dated 2020).

Assays:
[1] = test system: Rat aortas (aortic ring sections); assay: Rat aortic ring angiogenic sprouting assay in collagen I matrices; assay type: cell-based; conditions: 0.5 μM in collagen I matrix; rat aortic rings; vs untreated and GST controls
Method: (A) Diagram of the murine syndecan-2 mutant proteins used in this study. (B) Rat aortas were seeded in collagen I matrices as above containing 0.5 μM of GST(control), S2ED or the mutant forms of S2ED. Sprouts from 8 rings per condition were counted and the mean calculated. Error bars represent the SEM and significance was calculated using a one way ANOVA with Bonferroni multiple comparison (p***<0.005, p****<0.0001).
In another assay with murine peptides, full length S2ED, S2EDΔP^124-F^141 (lacking adhesion regulatory domain) or S2EDΔL^73-G^123 (truncated form containing only the adhesion regulatory residues) were incorporated into collagen matrices in which aortic ring sections were embedded (FIGS. 4A and B).
Aortic ring assay: Thoracic aortas dissected from cervically dislocated 180-200 g male wistar rats (Harlan Laboratories) or 6 week old C57BL/6 mice (Charles River) were sliced into 0.5 mm sections and incubated overnight in serum free OptiMEM (Invitrogen) at 37° C. […] Angiogenic sprouts from rat and mouse aortas were counted after 4 days and 8 days respectively (Method based on that of Nicosia and Ottinetti (Laboratory Investigation 63:115-122, 1990) and modified in De Rossi et al. (Journal of Genetic Syndromes & Gene Therapy 4, 2013).

CD148 = target: T1, CD148 (Mus musculus, UniProt Q64455); assay: CD148 pull down from EC lysates with GST fusion protein coated beads, Western blot; assay type: binding; conditions: protein-coated beads as bait
T1 construct: endogenous in cells; bEND3.1 cells
T1 sequence (Q64455 29-1238): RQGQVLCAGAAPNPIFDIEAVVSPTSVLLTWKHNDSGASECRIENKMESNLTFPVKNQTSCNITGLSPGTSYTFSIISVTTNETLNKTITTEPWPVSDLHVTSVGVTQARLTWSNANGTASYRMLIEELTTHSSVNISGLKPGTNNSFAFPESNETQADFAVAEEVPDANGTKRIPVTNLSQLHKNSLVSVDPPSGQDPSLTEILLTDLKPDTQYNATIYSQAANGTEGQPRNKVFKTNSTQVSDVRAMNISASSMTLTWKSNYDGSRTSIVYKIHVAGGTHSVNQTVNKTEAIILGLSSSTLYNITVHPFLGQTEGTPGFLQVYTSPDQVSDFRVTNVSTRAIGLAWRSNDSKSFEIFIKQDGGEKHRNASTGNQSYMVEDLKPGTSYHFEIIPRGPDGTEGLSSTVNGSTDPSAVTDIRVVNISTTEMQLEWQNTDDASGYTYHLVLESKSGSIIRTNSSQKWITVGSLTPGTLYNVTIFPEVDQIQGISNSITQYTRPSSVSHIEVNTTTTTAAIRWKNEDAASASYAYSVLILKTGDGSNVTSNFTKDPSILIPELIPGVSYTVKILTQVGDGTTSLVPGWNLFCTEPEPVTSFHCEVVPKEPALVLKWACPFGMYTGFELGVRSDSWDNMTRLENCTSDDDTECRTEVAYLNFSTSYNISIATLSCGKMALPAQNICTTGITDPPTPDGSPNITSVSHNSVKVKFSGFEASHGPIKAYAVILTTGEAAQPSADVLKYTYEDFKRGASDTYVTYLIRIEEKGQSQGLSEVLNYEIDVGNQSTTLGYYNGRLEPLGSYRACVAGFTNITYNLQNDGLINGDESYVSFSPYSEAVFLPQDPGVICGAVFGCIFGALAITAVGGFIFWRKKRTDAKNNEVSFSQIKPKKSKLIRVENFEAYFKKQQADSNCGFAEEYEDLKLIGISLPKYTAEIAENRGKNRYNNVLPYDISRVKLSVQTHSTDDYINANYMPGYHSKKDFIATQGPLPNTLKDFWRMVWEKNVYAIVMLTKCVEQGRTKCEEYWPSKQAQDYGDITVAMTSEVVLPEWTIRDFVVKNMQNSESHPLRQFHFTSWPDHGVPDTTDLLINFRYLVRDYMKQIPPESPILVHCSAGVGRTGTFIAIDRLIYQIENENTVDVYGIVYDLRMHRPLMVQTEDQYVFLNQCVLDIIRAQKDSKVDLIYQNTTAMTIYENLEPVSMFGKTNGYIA
Method: (A) bEND3.1, MLEC and sEND cells express CD148. Western blot of lysates from the EC lines indicated were probed with antibodies to CD148 or β-tubulin. (B) CD148 interacts with murine syndecan extracellular core protein (S2ED). Cell lysates from sEND cells were incubated with beads coated with GST(control), S2ED, S2EDΔP^124-F^141 or S2EDΔL^73-G^123. Precipitates were analysed by Western blot for the presence of CD148. CD148 was only pulled down by forms of S2ED which contain the C-terminal 18 amino acid adhesion regulatory domain. Blot is representative of 4 experiments.
In fibroblasts the protein tyrosine phosphatase receptor CD148 interacts directly with the adhesion regulatory domain of S2ED leading to β1 integrin mediated cell attachment and spreading (Whiteford et al., 2011 Mol Biol Cell, 22(19):3609-24). To determine whether CD148 is a mediator for EC responses to S2ED the expression of CD148 on ECs from brain, lung and skin was confirmed.
CD148 pulldown and Western blot: Confluent bEND3.1 cells were lysed in 1% tritonx100 in TBS containing HALT protease and phosphatase inhibitors (Pierce). GST and S2ED were bound to glutathione-sepharose beads (GE Healthcare) and were added to cell lysates and incubated for 1 hour. Beads were isolated by centrifugation and washed twice in TBS, prior to incubation in Laemmli buffer and analysis by Western blot using standard procedures.

brain ECs = assay: Scratch wound migration assay on brain ECs with murine syndecan-2 GST fusion proteins; assay type: cell-based; conditions: 0.5 μM fusion protein, vs GST alone
Method: Scratch wound migration assays were performed in the presence of 0.5 μM of the fusion proteins indicated on brain ECs. Cell migration is measured by time lapse microscopy using an Olympus IX81 microscope with a controlled environment chamber set at 37° C., 10% CO2. Images were captured every 30 minutes using a Hamamatsu Orca ER digital camera and processed using Cell^M software (Olympus). (A) Phase contrast images 9 hours after the scratch was made. (B) EC migration speed is reduced in the presence of S2ED proteins containing the 18aa regulatory domain. Cell speed data represents mean measurements from at least 25 individual cells at the leading edge per treatment.
Migration assays were also performed on brain ECs in the presence of murine syndecan-2 GST fusion proteins—either S2ED or the truncated forms of this protein (S2EDΔP^124-F^141 and S2EDΔL^73-G^123).
Scratch wound migration assays: Scratch wound migration assays were performed on confluent monolayers of ECs. Wounds were made using a pipette tip, and fusion proteins were added to the medium and images were captured every 30 minutes for 12 hours by time lapse microscopy using an Olympus IX81 microscope. Percentage wound closure was calculated and individual cells tracked using Image J.

Substance: S2ED: murine syndecan-2 extracellular core protein, full length, GST fusion protein (SEQ ID NO 3)
- Angiogenic sprout formation [1]: severely compromised
- Pull-down of CD148 from EC lysates (CD148): successfully pull-down CD148
- EC cell migration (wound closure) (brain ECs): inhibited EC cell migration

Substance: S2EDΔL^73-G^123: truncated murine syndecan-2 GST fusion protein containing only the adhesion regulatory residues (SEQ ID NO 5)
- Angiogenic sprout formation [1]: severely compromised
- Pull-down of CD148 from EC lysates (CD148): successfully pull-down CD148
- EC cell migration (wound closure) (brain ECs): inhibited EC cell migration

Substance: S2EDΔP^124-F^141: murine syndecan-2 GST fusion mutant lacking adhesion regulatory domain (SEQ ID NO 4)
- Pull-down of CD148 from EC lysates (CD148): No CD148 was evident
- EC cell migration (wound closure) (brain ECs): did not affect cell migration
